Assays:
Format in all cases: in vivo
[1] = test system: ivyleaf morningglory (Ipomoea hederacea, IPOHE); test: Post-emerge greenhouse herbicide test, phytotoxicity rating; settings: Ipomoea, post-emergence, 336 h, 14 days after application, scale 0-100; for pest or weed control at 63 g/ha: rate 63 g ai/ha; for pest or weed control at 500 g/ha: rate 500 g ai/ha
Procedure, shortened: (§1)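 Compounds in acetone with 0.25% v/v non-ionic surfactant were track-sprayed at 187 l/ha over plants at the 2-3 leaf stage, at 63 to 1000 g ai/ha. Pots were bottom-watered. Injury was scored visually 14 days later on a 0-100 scale, where 0 is no damage and 100 is complete plant death.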

[2] = test system: barnyardgrass (Echinochloa crusgalli, ECHCG); test: as above; settings: Echinochloa crus-galli, post-emergence, 336 h, 14 days after application, scale 0-100; for pest or weed control at 63 g/ha: rate 63 g ai/ha; for pest or weed control at 500 g/ha: rate 500 g ai/ha
Procedure, shortened: as §1

[3] = test system: redroot pigweed (Amaranthus retroflexus, AMARE); test: as above; settings: Amaranthus retroflexus, post-emergence, 336 h, 14 days after application, scale 0-100; for pest or weed control at 63 g/ha: rate 63 g ai/ha; for pest or weed control at 500 g/ha: rate 500 g ai/ha
Procedure, shortened: as §1

[4] = test system: large crabgrass (Digitaria sanguinalis, DIGSA); test: as above; settings: Digitaria sanguinalis, post-emergence, 336 h, 14 days after application, scale 0-100; for pest or weed control at 63 g/ha: rate 63 g ai/ha; for pest or weed control at 500 g/ha: rate 500 g ai/ha
Procedure, shortened: as §1

[5] = test system: green foxtail (Setaria viridis, SETVI); test: as above; settings: Setaria viridis, post-emergence, 336 h, 14 days after application, scale 0-100; for pest or weed control at 63 g/ha: rate 63 g ai/ha; for pest or weed control at 500 g/ha: rate 500 g ai/ha
Procedure, shortened: as §1

[6] = test system: lambsquarters (Chenopodium album, CHEAL); test: as above; settings: Chenopodium album, post-emergence, 336 h, 14 days after application, scale 0-100; for pest or weed control at 63 g/ha: rate 63 g ai/ha; for pest or weed control at 500 g/ha: rate 500 g ai/ha
Procedure, shortened: as §1

[7] = test system: Johnsongrass (Sorghum halepense, SORHA); test: as above; settings: Sorghum halepense, post-emergence, 336 h, 14 days after application, scale 0-100; for pest or weed control at 63 g/ha: rate 63 g ai/ha; for pest or weed control at 500 g/ha: rate 500 g ai/ha
Procedure, shortened: as §1

[8] = test system: velvetleaf (Abutilon theophrasti, ABUTH); test: as above; settings: Abutilon theophrasti, post-emergence, 336 h, 14 days after application, scale 0-100; for pest or weed control at 63 g/ha: rate 63 g ai/ha; for pest or weed control at 500 g/ha: rate 500 g ai/ha
Procedure, shortened: as §1

[9] = test system: sicklepod (Cassia obtusifolia, CASOB); test: as above; settings: Senna obtusifolia, post-emergence, 336 h, 14 days after application, scale 0-100; for pest or weed control at 63 g/ha: rate 63 g ai/ha; for pest or weed control at 500 g/ha: rate 500 g ai/ha
Procedure, shortened: as §1

[10] = test system: barnyardgrass (Echinochloa crusgalli, ECHCG); test: Pre-emerge greenhouse herbicide test, phytotoxicity rating; settings: Echinochloa crus-galli, pre-emergence, 336 h, 14 days after application, rating scale 0-100; for pest or weed control at 125 g/ha: Rate 125 g al/ha; for pest or weed control at 500 g/ha: Rate 500 g al/ha
Procedure, shortened: (§2)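 Seeds sown in sandy loam mix one day before track-sprayer application of compounds in acetone at 125–1000 g ai/ha (187 l/ha), then surface-watered to incorporate and bottom-watered. Visual rating 14 days after application on a 0–100 scale (0 = no damage, 100 = all plants dead).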

[11] = test system: redroot pigweed (Amaranthus retroflexus, AMARE); test: as above; settings: Amaranthus retroflexus, pre-emergence, 336 h, 14 days after application, rating scale 0-100; for pest or weed control at 125 g/ha: Rate 125 g al/ha; for pest or weed control at 500 g/ha: Rate 500 g al/ha
Procedure, shortened: as §2

[12] = test system: green foxtail (Setaria viridis, SETVI); test: as above; settings: Setaria viridis, pre-emergence, 336 h, 14 days after application, rating scale 0-100; for pest or weed control at 125 g/ha: Rate 125 g al/ha; for pest or weed control at 500 g/ha: Rate 500 g al/ha
Procedure, shortened: as §2

[13] = test system: lambsquarters (Chenopodium album, CHEAL); test: as above; settings: Chenopodium album, pre-emergence, 336 h, 14 days after application, rating scale 0-100; for pest or weed control at 125 g/ha: Rate 125 g al/ha; for pest or weed control at 500 g/ha: Rate 500 g al/ha
Procedure, shortened: as §2

[14] = test system: Johnsongrass (Sorghum halepense, SORHA); test: as above; settings: Sorghum halepense, pre-emergence, 336 h, 14 days after application, rating scale 0-100; for pest or weed control at 125 g/ha: Rate 125 g al/ha; for pest or weed control at 500 g/ha: Rate 500 g al/ha
Procedure, shortened: as §2

[15] = test system: sicklepod (Cassia obtusifolia, CASOB); test: as above; settings: Senna obtusifolia, pre-emergence, 336 h, 14 days after application, rating scale 0-100; for pest or weed control at 125 g/ha: Rate 125 g al/ha; for pest or weed control at 500 g/ha: Rate 500 g al/ha
Procedure, shortened: as §2

Row | Structure (SMILES) | pest or weed control at 500 g/ha [1] [%] | pest or weed control at 500 g/ha [2] [%] | pest or weed control at 500 g/ha [3] [%] | pest or weed control at 500 g/ha [4] [%] | pest or weed control at 500 g/ha [5] [%] | pest or weed control at 500 g/ha [6] [%] | pest or weed control at 500 g/ha [7] [%] | pest or weed control at 500 g/ha [8] [%] | pest or weed control at 500 g/ha [9] [%] | pest or weed control at 125 g/ha [10] [%] | pest or weed control at 500 g/ha [10] [%] | pest or weed control at 125 g/ha [11] [%] | pest or weed control at 500 g/ha [11] [%] | pest or weed control at 125 g/ha [12] [%] | pest or weed control at 500 g/ha [12] [%] | pest or weed control at 125 g/ha [13] [%] | pest or weed control at 500 g/ha [13] [%] | pest or weed control at 125 g/ha [14] [%] | pest or weed control at 500 g/ha [14] [%] | pest or weed control at 125 g/ha [15] [%] | further results
1 | Cc1nsc(Oc2cc(-n3c(=O)cc(C(F)(F)F)n(N)c3=O)c(F)cc2Cl)c1[N+](=O)[O-] [Compound 9-14, 1-Amino-3-[4-Chloro-2-fluoro-5-(3-methyl-4-nitroisothiazol-5-yloxy)phenyl]-6-trifluoromethyl-1,2,3,4-tetrahydropyrimidine-2,4-dione] | 100 | 100 | 100 | 100 | 100 | 100 | 100 | 100 | 100 | 95 | 90 | 100 | 100 | 100 | 100 | 100 | 100 | 95 | 100 | 100 | pest or weed control at 63 g/ha [1]: 95%; pest or weed control at 63 g/ha [2]: 10%; pest or weed control at 63 g/ha [3]: 100%; pest or weed control at 63 g/ha [4]: 30%; pest or weed control at 63 g/ha [5]: 80%; pest or weed control at 63 g/ha [6]: 80%; pest or weed control at 63 g/ha [7]: 40%; pest or weed control at 63 g/ha [8]: 100%; pest or weed control at 63 g/ha [9]: 60%; pest or weed control at 500 g/ha [15]: 90%
2 | Nn1c(C(F)(F)F)cc(=O)n(-c2cc(Oc3ccccn3)c(Cl)cc2F)c1=O [Compound 9-15, 1-amino-3-[4-chloro-2-fluoro-5-(2pyridyloxy)phenyl]-6-trifluoromethyl-1,2,3,4-tetrahydropyrimidine-2,4-dione] | 100 | 99 | 100 | 100 | 100 | 100 | 100 | 100 | 100 | 100 | 100 | 100 | 100 | 100 | 100 | 100 | 100 | 100 | 100 | 95 | pest or weed control at 125 g/ha ([1]; rate 125 g ai/ha): 100%; pest or weed control at 125 g/ha ([2]; rate 125 g ai/ha): 90%; pest or weed control at 125 g/ha ([3]; rate 125 g ai/ha): 100%; pest or weed control at 125 g/ha ([4]; rate 125 g ai/ha): 90%; pest or weed control at 125 g/ha ([5]; rate 125 g ai/ha): 95%; pest or weed control at 125 g/ha ([6]; rate 125 g ai/ha): 100%; pest or weed control at 125 g/ha ([7]; rate 125 g ai/ha): 95%; pest or weed control at 125 g/ha ([8]; rate 125 g ai/ha): 100%; pest or weed control at 125 g/ha ([9]; rate 125 g ai/ha): 100%; pest or weed control at 500 g/ha [15]: 100%
3 | Nn1c(C(F)(F)F)cc(=O)n(-c2cc(Oc3ncccn3)c(Cl)cc2F)c1=O [Compound 9-16, 1-Amino-3-[4-chloro-2-fluoro-5-(2-pyrimidyloxy)phenyl]-6-trifluoromethyl-1,2,3,4-tetrahydropyrimidine-2,4-dione] | 100 | 100 | 100 | 100 | 100 | 100 | 100 | 100 | 100 | 100 | 100 | 100 | 100 | 100 | 100 | 100 | 100 | 100 | 100 | 100 | pest or weed control at 63 g/ha [1]: 100%; pest or weed control at 63 g/ha [2]: 100%; pest or weed control at 63 g/ha [3]: 100%; pest or weed control at 63 g/ha [4]: 100%; pest or weed control at 63 g/ha [5]: 100%; pest or weed control at 63 g/ha [6]: 100%; pest or weed control at 63 g/ha [7]: 100%; pest or weed control at 63 g/ha [8]: 100%; pest or weed control at 63 g/ha [9]: 100%; pest or weed control at 500 g/ha [15]: 100%
4 | Nn1c(C(F)(F)F)cc(=O)n(-c2cc(Oc3nccc(Cl)n3)c(Cl)cc2F)c1=O [Compound 9-17, 1-Amino-3-[4-chloro-2-fluoro-5-(4-chloro-2-pyrimidyloxy)phenyl]-6-trifluoromethyl-1,2,3,4-tetrahydropyrimidine-2,4-dione] | 95 | 60 | 95 | 10 | 10 | 90 | 80 | 100 | 0 | 20 | 100 | 100 | 100 | 90 | 100 | 100 | 100 | 30 | 90 | 20 | pest or weed control at 63 g/ha [1]: 100%; pest or weed control at 63 g/ha [2]: 0%; pest or weed control at 63 g/ha [3]: 95%; pest or weed control at 63 g/ha [4]: 10%; pest or weed control at 63 g/ha [5]: 10%; pest or weed control at 63 g/ha [6]: 80%; pest or weed control at 63 g/ha [7]: 0%; pest or weed control at 63 g/ha [8]: 100%; pest or weed control at 63 g/ha [9]: 0%; pest or weed control at 500 g/ha [15]: 70%
